Active and inactive are the calls of the source.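 The calls were made as follows: active = IC50 at or below 20 µM; inactive = the rest.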
Each compound was assayed against Tyrosine-protein phosphatase non-receptor type 22 (Homo sapiens) (UniProt Q9Y2R2) (assay: LYP phosphatase inhibition for selectivity, SAR follow-up, selectivity assay for LMPTP inhibitor project, biochemical, fluorescence, LYP catalytic domain (AID 743309)). Conditions: recombinant LYP catalytic domain, OMFP fluorescence.
Tyrosine-protein phosphatase non-receptor type 22 (Homo sapiens), sequence (Q9Y2R2 whole entry, looked up, the tested form may be a part): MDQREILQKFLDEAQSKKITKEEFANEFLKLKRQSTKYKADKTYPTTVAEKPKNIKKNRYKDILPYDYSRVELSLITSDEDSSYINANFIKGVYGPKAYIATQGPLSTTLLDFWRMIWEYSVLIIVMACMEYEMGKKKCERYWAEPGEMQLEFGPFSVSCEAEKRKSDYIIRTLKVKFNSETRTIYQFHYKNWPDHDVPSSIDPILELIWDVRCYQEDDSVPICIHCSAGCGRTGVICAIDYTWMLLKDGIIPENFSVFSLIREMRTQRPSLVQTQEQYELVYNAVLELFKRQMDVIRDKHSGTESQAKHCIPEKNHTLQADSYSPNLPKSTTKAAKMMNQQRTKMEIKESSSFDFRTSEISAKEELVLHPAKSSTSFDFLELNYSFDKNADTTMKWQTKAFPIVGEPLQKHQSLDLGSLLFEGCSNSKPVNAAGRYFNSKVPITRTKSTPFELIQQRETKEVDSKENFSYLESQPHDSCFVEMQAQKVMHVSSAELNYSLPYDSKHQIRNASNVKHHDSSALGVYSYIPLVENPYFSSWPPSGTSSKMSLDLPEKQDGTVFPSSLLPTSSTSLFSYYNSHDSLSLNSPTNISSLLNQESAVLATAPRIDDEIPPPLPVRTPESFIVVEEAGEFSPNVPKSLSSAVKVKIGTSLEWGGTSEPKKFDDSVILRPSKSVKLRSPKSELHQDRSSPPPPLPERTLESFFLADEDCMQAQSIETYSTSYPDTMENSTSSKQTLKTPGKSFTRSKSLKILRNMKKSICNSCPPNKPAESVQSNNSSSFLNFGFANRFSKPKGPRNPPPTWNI

SMILES | IC50
Clc1cccc(Cl)c1Cn1cnc(=NCc2ccco2)c2[nH]cnc21 | > 80 µM (inactive)
c1ccc(-c2cc(NCCN3CCCC3)c3ccccc3n2)cc1 | > 80 µM (inactive)
c1ccc(-c2nc(NCCN3CCOCC3)c3ccccc3n2)cc1 | > 80 µM (inactive)
CN(C)CCNc1cc(-c2ccccc2)nc2ccccc12 | > 80 µM (inactive)
c1ccc(-c2nc(N3CCSCC3)c3ccccc3n2)cc1 | > 80 µM (inactive)
Fc1cccc(-c2cc(NCCCN3CCCCC3)c3ccccc3n2)c1 | > 80 µM (inactive)
c1ccc(-c2cc(NCCCN3CCOCC3)c3ccccc3n2)cc1 | > 80 µM (inactive)
Clc1ccc(-c2cc(NCCCN3CCCCC3)c3ccccc3n2)cc1 | > 80 µM (inactive)
c1ccc(-c2nc(N3CCCC3)c3ccccc3n2)cc1 | > 80 µM (inactive)
Cc1ccc(-c2cc(NCCCN3CCCCC3)c3ccccc3n2)cc1 | > 80 µM (inactive)
c1ccc(-c2nc(NCCCN3CCOCC3)c3ccccc3n2)cc1 | > 80 µM (inactive)
c1ccc(-c2cc(SCCCN3CCCCC3)c3ccccc3n2)cc1 | > 80 µM (inactive)
c1ccc(-c2nc(NC3CCCCC3)c3ccccc3n2)cc1 | > 80 µM (inactive)
c1ccc(-c2nc(NC3CCCC3)c3ccccc3n2)cc1 | > 80 µM (inactive)
c1ccc(-c2cc(NCCN3CCCCC3)c3ccccc3n2)cc1 | > 80 µM (inactive)
CCN(CC)c1nc(-c2ccccc2)nc2ccccc12 | > 80 µM (inactive)
CN(C)CCNc1nc(-c2ccccc2)nc2ccccc12 | > 80 µM (inactive)
Fc1ccc(-c2cc(NCCCN3CCCCC3)c3ccccc3n2)cc1 | > 80 µM (inactive)
c1ccc(-c2cc(NCCCN3CCCCC3)c3ccccc3n2)cc1 | > 80 µM (inactive)
CN1CCN(c2nc(-c3ccccc3)nc3ccccc23)CC1 | > 80 µM (inactive)

SMILES | IC50
c1ccc(-c2nc(NCCN3CCCCC3)c3ccccc3n2)cc1 | > 80 µM (inactive)
O=C(OCCNc1nc(-c2ccccc2)nc2ccccc12)c1cccnc1 | > 80 µM (inactive)
COc1cc2nc(-c3ccccc3)cc(NCCCN3CCCCC3)c2cc1OC | > 80 µM (inactive)
c1ccc(-c2nc(NCCCN3CCCCC3)c3ccccc3n2)cc1 | > 80 µM (inactive)
COc1ccccc1-c1cc(NCCCN2CCCCC2)c2ccccc2n1 | > 80 µM (inactive)
O=C(OCCNc1nc(-c2ccccc2)nc2ccccc12)c1ccncc1 | > 80 µM (inactive)
c1ccc(-c2nc(NCc3cccnc3)c3ccccc3n2)cc1 | > 80 µM (inactive)
Brc1ccc2nc(-c3ccccc3)cc(NCCCN3CCCCC3)c2c1 | > 80 µM (inactive)
Nc1nc(N)c(Cc2ccc(Cl)cc2Cl)c(N)n1 | > 80 µM (inactive)
c1ccc(-c2cc(NCCN3CCOCC3)c3ccccc3n2)cc1 | > 80 µM (inactive)
COc1cccc(-c2cc(NCCCN3CCCCC3)c3ccccc3n2)c1 | > 80 µM (inactive)
COc1ccccc1CNc1ncnc2ccsc12 | > 80 µM (inactive)
Cc1ccc(-c2nc(NCCN3CCOCC3)c3ccccc3n2)cc1 | > 80 µM (inactive)
FC(F)(F)c1cccc(-c2cc(NCCCN3CCCCC3)c3ccccc3n2)c1 | > 80 µM (inactive)
Cc1cccc(-c2nc(NCCCN3CCOCC3)c3ccccc3n2)c1 | > 80 µM (inactive)
c1ccc(-c2cc(N3CCCCC3)c3ccccc3n2)cc1 | > 80 µM (inactive)
Fc1ccccc1-c1nc(NCCCN2CCOCC2)c2ccccc2n1 | > 80 µM (inactive)
CC(C)CNc1nc(-c2ccccc2)nc2ccccc12 | > 80 µM (inactive)
Cc1ccc2nc(-c3ccccc3)cc(NCCCN3CCCCC3)c2c1 | > 80 µM (inactive)
Fc1ccc2nc(-c3ccccc3)cc(NCCCN3CCCCC3)c2c1 | > 80 µM (inactive)

SMILES | IC50
Clc1cccc(-c2cc(NCCCN3CCCCC3)c3ccccc3n2)c1 | > 80 µM (inactive)
c1ccc(-c2nc(NCCCn3ccnc3)c3ccccc3n2)cc1 | > 80 µM (inactive)
c1ccc(-c2nc(NC3CC3)c3ccccc3n2)cc1 | > 80 µM (inactive)
c1ccc(-c2nc(N3CCCCC3)c3ccccc3n2)cc1 | > 80 µM (inactive)
Cc1ccc(-c2nc(NCc3cccnc3)c3ccccc3n2)cc1 | > 80 µM (inactive)
c1ccc(-c2cc(OCCCN3CCCCC3)c3ccccc3n2)cc1 | > 80 µM (inactive)
c1ccc2c(NCCCN3CCCCC3)cc(-c3ccncc3)nc2c1 | > 80 µM (inactive)
CC(C)OCCCNc1nc(-c2ccccc2)nc2ccccc12 | > 80 µM (inactive)
Fc1ccccc1-c1nc(NC2CCCC2)c2ccccc2n1 | > 80 µM (inactive)
c1ccc(-c2nc(N3CCCCCC3)c3ccccc3n2)cc1 | > 80 µM (inactive)
Clc1ccccc1-c1cc(NCCCN2CCCCC2)c2ccccc2n1 | > 80 µM (inactive)
CCc1nc(N)nc(N)c1-c1ccc(Cl)cc1 | > 80 µM (inactive)
Cc1c(CCC(=O)O)c(=O)oc2c(C)c(OCc3ccccc3Cl)ccc12 | 15.7 µM
CC(C)Nc1nc(-c2ccccc2)nc2ccccc12 | > 80 µM (inactive)
c1ccc(-c2nc(NCCN3CCCC3)c3ccccc3n2)cc1 | > 80 µM (inactive)
CCCCNc1nc(-c2ccccc2)nc2ccccc12 | > 80 µM (inactive)
CC1CCN(c2nc(-c3ccccc3)nc3ccccc23)CC1 | > 80 µM (inactive)
c1ccc(-c2nc(N3CCOCC3)c3ccccc3n2)cc1 | > 80 µM (inactive)
COc1ccc(-c2cc(NCCCN3CCCCC3)c3ccccc3n2)cc1 | > 80 µM (inactive)

Reference: PubChem BioAssay AID743309 (Sanford-Burnham Center for Chemical Genomics, 2014)
